This is an account of results in ChEMBL document CHEMBL5625272, “A PSMA-targeted doxorubicin small-molecule drug conjugate” (Bioorg Med Chem Lett, 2024).

Series [1] has as its target Glutamate carboxypeptidase 2 (Homo sapiens, UniProt Q04609). The series is described as follows: Irreversible inhibition of PSMA (unknown origin).
In a further series the test system is LNCaP C4-2B. As to the kind of experiment: Anticancer activity against PMSA positive human LNCaP C4-2B cells assessed as reduction in cell viability measured after 72 hrs by celltiter-glo assay. The class given is functional, cell-based. The conditions noted are these: dose 0.313-20 µM. For orientation: Cellular ATP, detected with luciferase, serves as a proxy for viable cell number.

Series [2] can be described thus: Drug uptake in PSMA positive human LNCaP C4-2B cells assessed as increase in fluorescence at 10 uM incubated for 10 mins in presence of CTT1057 by DAPI staining based confocal microscopy analysis. The class given is ADME, cell-based.
The nature of series [3]: Drug uptake in PSMA positive human LNCaP C4-2B cells assessed as increase in fluorescence at 10 uM incubated for 10 mins by DAPI staining based confocal microscopy analysis. In kind it is ADME, cell-based.
Series [4] can be described thus: Drug uptake in human PC-3 cells with PSMA knockout assessed as increase in fluorescence at 10 uM incubated for 10 mins by DAPI staining based confocal microscopy analysis. In kind it is ADME, cell-based. The following applies: pc-3, 10 min.
The subject of another series is PC-3. As to the kind of experiment: Anticancer activity against human PC-3 cells with PSMA knockout cells assessed as reduction in cell viability measured after 72 hrs by celltiter-glo assay. The class given is functional, cell-based. The conditions noted are these: dose 0.313-20 µM.

Chain of Glutamate carboxypeptidase 2 (Q04609 whole entry): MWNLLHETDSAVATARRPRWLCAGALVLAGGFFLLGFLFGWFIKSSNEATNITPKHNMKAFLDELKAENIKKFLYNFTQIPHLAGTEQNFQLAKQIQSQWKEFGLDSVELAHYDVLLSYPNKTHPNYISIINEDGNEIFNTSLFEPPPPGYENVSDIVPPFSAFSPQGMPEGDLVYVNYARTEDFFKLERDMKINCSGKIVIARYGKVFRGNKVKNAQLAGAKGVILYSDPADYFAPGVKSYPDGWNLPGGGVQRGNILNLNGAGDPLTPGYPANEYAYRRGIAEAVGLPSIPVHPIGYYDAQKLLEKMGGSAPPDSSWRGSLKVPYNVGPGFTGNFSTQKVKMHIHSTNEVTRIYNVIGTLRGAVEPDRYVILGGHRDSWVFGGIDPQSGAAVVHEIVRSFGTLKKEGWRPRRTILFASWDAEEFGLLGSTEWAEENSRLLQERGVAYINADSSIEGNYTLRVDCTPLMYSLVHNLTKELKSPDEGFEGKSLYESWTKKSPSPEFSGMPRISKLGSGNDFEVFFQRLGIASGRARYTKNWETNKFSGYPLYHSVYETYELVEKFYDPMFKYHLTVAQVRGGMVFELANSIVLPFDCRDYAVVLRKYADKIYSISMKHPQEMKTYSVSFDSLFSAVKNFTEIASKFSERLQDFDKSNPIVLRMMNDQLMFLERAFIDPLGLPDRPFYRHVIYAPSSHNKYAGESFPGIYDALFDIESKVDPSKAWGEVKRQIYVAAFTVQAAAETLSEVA

In the case of `COc1cccc2c1C(=O)c1c(O)c3c(c(O)c1C2=O)C[C@@](O)(C(=O)CO)C[C@@H]3O[C@H]1C[C@H](N)[C@H](O)[C@H](C)O1` [DOXORUBICIN], the half-inhibitory concentration (IC50) in series [1] amounted to 10 µM.

For `COc1cccc2c1C(=O)c1c(O)c3c(c(O)c1C2=O)C[C@@](O)(C(=O)CO)C[C@@H]3O[C@H]1C[C@H](NC(=O)OCc2ccc(NC(=O)[C@H](CCCNC(N)=O)NC(=O)[C@@H](NC(=O)c3ccc(Cn4nnc5c4-c4ccccc4CN(C(=O)CCCCC(=O)NCCCCCC(=O)N[C@@H](CCC(=O)N[C@@H](CCCOP(=O)(O)N[C@@H](CCC(=O)O)C(=O)O)C(=O)O)C(=O)O)c4ccccc4-5)cc3)C(C)C)cc2)[C@H](O)[C@H](C)O1`, the Activity result in the series with LNCaP C4-2B and in the series with PC-3 was “Dose-Dependent Effect” in each case. Besides, the figures for the Drug uptake entry in series [2], in series [3] and in series [4] were “Not Active”, “Active” and “Not Active”, respectively.

By IC50 is commonly meant the concentration needed to halve the response being measured. A lower IC50 goes with greater potency in that assay.
